Assays:
Assay type in all cases: in vivo
Kochia (Kochia scoparia) [1] = assay: Test A preemergence; conditions: Preemergence; for Plant response rating, Kochia: 125 g ai/ha, visual injury after approximately 10 d, 0 to 100 scale where 0 is no effect and 100 is complete control; for Kochia plant response rating (0 to 100 scale, 0 is no effect, 100 is complete control): 500 g ai/ha, visual injury approx. 10 d
In short: (§1)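 Treatment is preemergence as a directed soil spray after planting, or postemergence at the one- to two-leaf stage, with test chemical in a non-phytotoxic solvent mixture plus surfactant. Plants stay in the greenhouse about 10 d before visual injury scoring on a 0 to 100 scale versus untreated controls.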

[2] = tested on: barnyardgrass (Echinochloa crus-galli); assay: Test A preemergence; conditions: Preemergence; for Plant response rating, Barnyardgrass: 125 g ai/ha, visual injury after approximately 10 d, 0 to 100 scale where 0 is no effect and 100 is complete control; for Barnyardgrass plant response rating (0 to 100 scale, 0 is no effect, 100 is complete control): 500 g ai/ha, visual injury approx. 10 d
In short: as §1

[3] = tested on: ryegrass, Italian (Italian ryegrass, Lolium multiflorum); assay: Test A preemergence; conditions: Preemergence; for Plant response rating, Ryegrass, Italian: 125 g ai/ha, visual injury after approximately 10 d, 0 to 100 scale where 0 is no effect and 100 is complete control; for Ryegrass, Italian plant response rating (0 to 100 scale, 0 is no effect, 100 is complete control): 500 g ai/ha, visual injury approx. 10 d
In short: as §1

[4] = tested on: giant foxtail (Setaria faberii); assay: Test A preemergence; conditions: Preemergence; for Plant response rating, Foxtail, Giant: 125 g ai/ha, visual injury after approximately 10 d, 0 to 100 scale where 0 is no effect and 100 is complete control; for Foxtail, Giant plant response rating (0 to 100 scale, 0 is no effect, 100 is complete control): 500 g ai/ha, visual injury approx. 10 d
In short: as §1

[5] = tested on: pigweed (Amaranthus retroflexus); assay: Test A preemergence; conditions: Preemergence; for Plant response rating, Pigweed: 125 g ai/ha, visual injury after approximately 10 d, 0 to 100 scale where 0 is no effect and 100 is complete control; for Pigweed plant response rating (0 to 100 scale, 0 is no effect, 100 is complete control): 500 g ai/ha, visual injury approx. 10 d
[6] = tested on: ragweed (common ragweed, Ambrosia elatior); assay: Test A preemergence; conditions: Preemergence; for Plant response rating, Ragweed: 125 g ai/ha, visual injury after approximately 10 d, 0 to 100 scale where 0 is no effect and 100 is complete control; for Ragweed plant response rating (0 to 100 scale, 0 is no effect, 100 is complete control): 500 g ai/ha, visual injury approx. 10 d
In short: as §1

[7] = tested on: sedge, umbrella (small-flower umbrella sedge, Cyperus difformis); assay: Test B flooded paddy test; conditions: Flood, 250 g ai/ha; 0 to 100 scale where 0 is no effect and 100 is complete control; 13 to 15 d
In short: (§2)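 Percent control, visually estimated after 13–15 d in the greenhouse on a 0–100 basis, compares treated pots with untreated ones; compound was put into paddy water 3 cm above the soil when plants had two leaves.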

[8] = tested on: barnyardgrass (Echinochloa crus-galli); assay: Test B flooded paddy test; conditions: Flood, 250 g ai/ha; 0 to 100 scale where 0 is no effect and 100 is complete control; 13 to 15 d
In short: as §2

[9] = tested on: ducksalad (Heteranthera limosa); assay: Test B flooded paddy test; conditions: Flood, 250 g ai/ha; 0 to 100 scale where 0 is no effect and 100 is complete control; 13 to 15 d
In short: as §2

rice (Oryra sativa) = assay: Test B flooded paddy test; conditions: Flood, 250 g ai/ha; 0 to 100 scale where 0 is no effect and 100 is complete control; 13 to 15 d
In short: as §2

Kochia (Kochia scoparia) [10] = assay: Test A postemergence
In short: as §1

[11] = tested on: barnyardgrass (Echinochloa crus-galli); assay: Test A postemergence
In short: as §1

[12] = tested on: ryegrass, Italian (Italian ryegrass, Lolium multiflorum); assay: Test A postemergence
In short: as §1

[13] = tested on: wheat (Triticum aestivum); assay: Test A postemergence
In short: as §1

[14] = tested on: giant foxtail (Setaria faberii); assay: Test A postemergence
In short: as §1

[15] = tested on: pigweed (Amaranthus retroflexus); assay: Test A postemergence
In short: as §1

[16] = tested on: blackgrass (Alopecurus myosuroides); assay: Test A postemergence
In short: as §1

[17] = tested on: ragweed (common ragweed, Ambrosia elatior); assay: Test A postemergence
In short: as §1

corn (Zea mays) = assay: Test A postemergence
In short: as §1

[18] = tested on: Galium (catchweed bedstraw, Galium aparine); assay: Test A postemergence
In short: as §1

[19] = 125 g ai/ha, postemergence, visual injury rating on 0 to 100 scale (0 no effect, 100 complete control), approx. 10 d
[20] = Postemergence, 500 g ai/ha, 0 to 100 scale where 0 is no effect and 100 is complete control
[21] = 125 g ai/ha, postemergence, visual rating after approx. 10 d, 0 to 100 scale (0 no effect, 100 complete control)

SMILES	Plant response rating, Kochia (Kochia (Kochia scoparia) [1])	Kochia plant response rating (0 to 100 scale, 0 is no effect, 100 is complete control) (Kochia (Kochia scoparia) [1])	Plant response rating, Barnyardgrass [2]	Barnyardgrass plant response rating (0 to 100 scale, 0 is no effect, 100 is complete control) [2]	Plant response rating, Ryegrass, Italian [3]	Ryegrass, Italian plant response rating (0 to 100 scale, 0 is no effect, 100 is complete control) [3]	Plant response rating, Foxtail, Giant [4]	Foxtail, Giant plant response rating (0 to 100 scale, 0 is no effect, 100 is complete control) [4]	Plant response rating, Pigweed [5]	Pigweed plant response rating (0 to 100 scale, 0 is no effect, 100 is complete control) [5]	Plant response rating, Ragweed [6]	Ragweed plant response rating (0 to 100 scale, 0 is no effect, 100 is complete control) [6]	Plant response rating, Sedge, Umbrella [7]	Plant response rating, Barnyardgrass [8]	Plant response rating, Ducksalad [9]	Plant response rating, Rice (rice (Oryra sativa))	Plant response rating, Kochia (Kochia (Kochia scoparia) [10]; [20])	Plant response rating, Barnyardgrass [11, 20]	Plant response rating, Ryegrass, Italian [12, 20]	Plant response rating, Wheat [13, 20]	further results
O=C1NCC(c2ccc(C(F)(F)F)c(F)c2)C1C(=O)Nc1ccc(F)cc1F (racemic) [Compound 522]	60	60	90	90	30	60	90	90	70	80	0	30	0	40	100	0	50	80	40	20	Kochia plant response rating (Kochia (Kochia scoparia) [10]; [19]): 20; Barnyardgrass plant response rating [11, 19]: 60; Ryegrass, Italian plant response rating [12, 19]: 20; Wheat plant response rating [13, 19]: 0; Foxtail, Giant plant response rating [14, 19]: 90; Plant response rating, Foxtail, Giant [14, 20]: 90; Pigweed plant response rating [15, 19]: 20; Plant response rating, Pigweed [15, 20]: 40; Blackgrass plant response rating [16, 19]: 30; Plant response rating, Blackgrass [16, 20]: 50; Ragweed plant response rating [17, 19]: 0; Plant response rating, Ragweed [17, 20]: 0; Corn plant response rating (corn (Zea mays); [19]): 0; Plant response rating, Corn (corn (Zea mays); [20]): 20; Galium plant response rating [18, 19]: 30; Plant response rating, Galium [18, 20]: 60
O=C1NCC(c2ccsc2Br)C1C(=O)Nc1ccccc1F (stereo not drawn) [Compound 597]	0	20	20	70	0	0	20	80	0	0	0	0	0	0	50	0	0	30	0	20	Plant response rating, Kochia (Kochia (Kochia scoparia) [10]; [21]): 0; Plant response rating, Barnyardgrass [11, 21]: 0; Plant response rating, Ryegrass, Italian [12, 21]: 0; Plant response rating, Wheat [13, 21]: 0; Plant response rating, Foxtail, Giant [14, 21]: 0; Plant response rating, Foxtail, Giant [14, 20]: 30; Plant response rating, Pigweed [15, 21]: 0; Plant response rating, Pigweed [15, 20]: 0; Plant response rating, Blackgrass [16, 21]: 0; Plant response rating, Blackgrass [16, 20]: 20; Plant response rating, Ragweed [17, 21]: 0; Plant response rating, Ragweed [17, 20]: 0; Plant response rating, Corn (corn (Zea mays); [21]): 0; Plant response rating, Corn (corn (Zea mays); [20]): 20; Plant response rating, Galium [18, 21]: 0; Plant response rating, Galium [18, 20]: 20
